Laboratory results from DBAASP.
In brackets after ≈: the same amount, converted by molar mass. Several values for one entry are separate records, joined by “and”; a condition that tells them apart may be missing. Equal values may be shown once.

Assays:
Assay in all cases: ≥ marks a high value that may be exact or a test limit, other limits are often not marked, values filed in µg/mL are converted to µM
[1] = tested on: Bacillus megaterium CGMCC 1.0459
Bacillus sp. DM-1 = tested on: Bacillus sp. DM-1
[2] = tested on: Bacillus subtilis CGMCC 1.2428
Beauveria sp. = tested on: Beauveria sp.
[3] = tested on: Micrococcus luteus CGMCC 1.0290
Saccharomyces cerevisiae = tested on: Saccharomyces cerevisiae
[4] = tested on: Bacillus subtilis ATCC 23857
[5] = tested on: Escherichia coli ATCC 25922
[6] = tested on: Escherichia coli ATCC 700926
Escherichia coli BL21 = tested on: Escherichia coli BL21
[7] = tested on: Pseudomonas aeruginosa ATCC 27853
[8] = tested on: Pseudomonas aeruginosa ATCC 9027
[9] = tested on: Staphylococcus aureus ATCC 43300
[10] = tested on: Staphylococcus aureus ATCC 6538P
[11] = tested on: Staphylococcus aureus ATCC 6538
[12] = tested on: Staphylococcus aureus USA 300
[13] = tested on: Staphylococcus aureus USA 400
[14] = tested on: Staphylococcus epidermidis ATCC 12228
[15] = tested on: Bacillus subtilis IFO 3513
[16] = tested on: Escherichia coli IFO 12734
[17] = tested on: Micrococcus luteus ATCC 9341
[18] = tested on: Staphylococcus aureus IFO 12732
[19] = tested on: Bacillus subtilis KCTC 3068
[20] = tested on: Candida albicans KCTC 7965
[21] = tested on: Escherichia coli KCTC 1682
[22] = tested on: Pseudomonas aeruginosa KCTC 1637
[23] = tested on: Salmonella typhimurium KCTC 1926
[24] = tested on: Staphylococcus aureus KCTC 1621
[25] = tested on: Staphylococcus epidermidis KCTC 1917
[26] = tested on: Salmonella enterica subsp. enterica serovar Typhi
[27] = tested on: Staphylococcus epidermidis
Vibrio cholerae = tested on: Vibrio cholerae
Candida albicans = tested on: Candida albicans
Escherichia coli = tested on: Escherichia coli
Listeria monocytogenes = tested on: Listeria monocytogenes
[28] = tested on: Neisseria gonorrhoeae F-62
[29] = tested on: Neisseria gonorrhoeae FA-19
[30] = tested on: Escherichia coli DH5alpha
[31] = tested on: Penicillium digitatum PHI-26
[32] = tested on: Saccharomyces cerevisiae FY1679
[33] = tested on: Acinetobacter baumannii ATCC 19606
[34] = tested on: Candida albicans NCTC 3179
[35] = tested on: Enterococcus faecalis NCTC 12697
[36] = tested on: Lactobacillus acidophilus NCTC 1723
[37] = tested on: Pseudomonas aeruginosa 8600
[38] = tested on: Streptococcus mutans NCTC 10449

## CC(C)[C@H](NC(=O)[C@H](CS)NC(=O)[C@H](CC(=O)O)NC(=O)CNC(=O)[C@H](CC(N)=O)NC(=O)[C@H](CCCCN)NC(=O)[C@H](CS)NC(=O)[C@H](CCCCN)NC(=O)CNC(=O)CN)C(=O)N[C@@H](CS)C(=O)N[C@@H](CCCN=C(N)N)C(N)=O [GGKCKNGDCVCR]
[1]
  MIC: 8.93 µM (≈ 11.1 µg/mL)
Bacillus sp. DM-1
  MIC: ≥ 33.8 µM
[2]
  MIC: 10.8 µM (≈ 13.3 µg/mL)
Beauveria sp.
  MIC: 17.7 µM (≈ 21.9 µg/mL)
[3]
  MIC: 26 µM (≈ 32.2 µg/mL)
Saccharomyces cerevisiae
  MIC: ≥ 52 µM

## CC[C@H](C)[C@H](NC(=O)[C@H](CCCCN)NC(=O)[C@H](CCCCN)NC(=O)[C@@H](NC(=O)[C@@H](NC(=O)[C@H](CCCCN)NC(=O)[C@H](CCCCN)NC(=O)[C@@H](NC(=O)[C@@H](NC(=O)[C@H](CCCCN)NC(=O)[C@H](CCCCN)NC(=O)[C@@H](NC(=O)[C@@H](NC(=O)CN)[C@@H](C)CC)[C@@H](C)CC)[C@@H](C)CC)[C@@H](C)CC)[C@@H](C)CC)[C@@H](C)CC)C(=O)O [GIIKKIIKKIIKKI]
[4]
  MIC: 2.4 µM (≈ 3.93 µg/mL)
[5]
  MIC: 5.7 µM (≈ 9.33 µg/mL)
[6]
  MIC: 15.6 µM (≈ 25.5 µg/mL)
Escherichia coli BL21
  MIC: 15.6 µM (≈ 25.5 µg/mL)
[7]
  MIC: 15.6 µM (≈ 25.5 µg/mL)
[8]
  MIC: 9.3 µM (≈ 15.2 µg/mL)
[9]
  MIC: 125 µM (≈ 205 µg/mL)
[10]
  MIC: 7.8 µM (≈ 12.8 µg/mL)
[11]
  MIC: 128 µM and 62.5 µM
[12]
  MIC: ≥ 125 µM
[13]
  MIC: ≥ 125 µM
[14]
  MIC: 3.9 µM (≈ 6.38 µg/mL)

## CC[C@H](C)[C@H](N)C(=O)N[C@@H](CC(C)C)C(=O)N1CCC[C@H]1C(=O)N[C@@H](Cc1ccc(O)cc1)C(=O)N[C@@H](CCCCN)C(=O)N[C@@H](Cc1ccc(O)cc1)C(=O)N1CCC[C@H]1C(=O)N[C@@H](Cc1ccc(O)cc1)C(=O)N[C@@H](Cc1ccc(O)cc1)C(=O)N1CCC[C@H]1C(=O)N[C@@H](Cc1ccc(O)cc1)C(=O)N[C@@H](CCCN=C(N)N)C(=O)N[C@@H](CCCN=C(N)N)C(N)=O [ILPYKYPYYPYRR]
[15]
  MIC: 14 µM (≈ 25 µg/mL)
[16]
  MIC: ≥ 55.8 µM
[17]
  MIC: 6.3 µM (≈ 11.3 µg/mL)
[18]
  MIC: 14 µM (≈ 25 µg/mL)

## CC(C)C[C@H](NC(=O)[C@H](CC(C)C)NC(=O)[C@H](CCCCN)NC(=O)[C@H](CCCCN)NC(=O)[C@H](CC(C)C)NC(=O)[C@H](CC(C)C)NC(=O)[C@H](CCCCN)NC(=O)[C@H](CC(C)C)NC(=O)[C@H](Cc1c[nH]c2ccccc12)NC(=O)[C@H](CCCCN)NC(=O)[C@H](CCCCN)NC(=O)[C@H](CC(C)C)NC(=O)[C@H](CC(C)C)NC(=O)[C@H](CCCCN)NC(=O)[C@H](CCCCN)NC(=O)[C@H](CC(C)C)NC(=O)[C@@H](N)CCCCN)C(=O)N[C@@H](CCCCN)C(N)=O [KLKKLLKKWLKLLKKLLK]
[19]
  MIC: 4 µM (≈ 9.05 µg/mL)
[20]
  MIC: 11.3 µM (≈ 25.6 µg/mL)
[21]
  MIC: 8 µM (≈ 18.1 µg/mL)
[22]
  MIC: 8 µM (≈ 18.1 µg/mL)
[23]
  MIC: 4 µM (≈ 9.05 µg/mL)
[24]
  MIC: 8 µM (≈ 18.1 µg/mL)
[25]
  MIC: 8 µM (≈ 18.1 µg/mL)

## CC(C)C[C@H](NC(=O)[C@H](CO)NC(=O)CNC(=O)[C@H](C)NC(=O)[C@@H](N)CC(N)=O)C(=O)N[C@@H](CC(C)C)C(=O)N[C@@H](CO)C(=O)NCC(=O)N[C@@H](Cc1c[nH]c2ccccc12)C(=O)NCC(=O)O [NAGSLLSGWG]
[26]
  MIC: 0.687 µM (≈ 0.66 µg/mL)
[27]
  MIC: 0.687 µM (≈ 0.66 µg/mL)
Vibrio cholerae
  MIC: 3 µM (≈ 2.88 µg/mL)

## CC(C)C[C@H](NC(=O)[C@H](CCCNC(=N)N)NC(=O)CNC(=O)CNC(=O)[C@@H](N)CCCNC(=N)N)C(=O)N[C@H]1CSSC[C@@H](C(=O)N[C@H](C(=O)NCC(=O)N[C@@H](CCCNC(=N)N)C(N)=O)C(C)C)NC(=O)[C@H](C(C)C)NC(=O)[C@@H]2CSSC[C@H](NC(=O)[C@H](Cc3ccc(O)cc3)NC1=O)C(=O)N[C@@H](CCCNC(=N)N)C(=O)N1CCC[C@H]1C(=O)N[C@@H](CCCNC(=N)N)C(=O)N[C@@H](Cc1ccccc1)C(=O)N2 [RGGRLCYCRPRFCVCVGR]
Candida albicans
  MIC: 7.42 µM (≈ 15.6 µg/mL)
Escherichia coli
  MIC: 1.38 µM (≈ 2.89 µg/mL)
Listeria monocytogenes
  MIC: 1.19 µM (≈ 2.49 µg/mL)
[28]
  MIC: 0.666 µM (≈ 1.4 µg/mL)
[29]
  MIC: 0.761 µM (≈ 1.6 µg/mL)

## CC(=O)N[C@@H](CCCN=C(N)N)C(=O)N[C@@H](CCCCN)C(=O)N[C@@H](CCCCN)C(=O)N[C@@H](Cc1c[nH]c2ccccc12)C(=O)N[C@@H](Cc1ccccc1)C(=O)N[C@@H](Cc1c[nH]c2ccccc12)C(N)=O [RKKWFW]
Candida albicans
  MIC: 132 µM (≈ 130 µg/mL)
[30]
  MIC: ≥ 32 µM
[31]
  MIC: 4 µM and 6 µM
[32]
  MIC: ≥ 32 µM

## CSCC[C@H](NC(=O)[C@H](CC(C)C)NC(=O)CNC(=O)[C@H](Cc1ccccc1)NC(=O)[C@H](Cc1ccccc1)NC(=O)[C@H](CCC(N)=O)NC(=O)[C@H](CCC(N)=O)NC(=O)[C@@H]1CCCN1C(=O)[C@H](CCCCN)NC(=O)[C@@H]1CCCN1C(=O)[C@@H](N)CCCN=C(N)N)C(N)=O [RPKPQQFFGLM]
[33]
  MIC: > 94.9 µM
[34]
  MIC: 6.01 µM (≈ 8.09 µg/mL)
[35]
  MIC: ≥ 371 µM
[36]
  MIC: ≥ 54.9 µM
[37]
  MIC: ≥ 94.9 µM
[38]
  MIC: ≥ 127 µM
